The values below come from ChEMBL document CHEMBL1145106, “The role of the side chain in determining relative delta- and kappa-affinity in C5'-substituted analogues of naltrindole” (J Med Chem, 2003).

In assay [1] the target is T1, Delta-type opioid receptor (Homo sapiens, UniProt P41143). The experiment in a line: Ability to displace [3H]DPDPE from human recombinant Opioid receptor delta 1 in CHO cells. It is filed as cell-based.
Assay [2] deals with T1, Delta-type opioid receptor. Particulars: CHO.
Description: Ability to displace DPDPE from human recombinant Opioid receptor delta 1 in CHO cells using [35S]- GTP-gamma S Assay
The target in assay [3] is T2, Kappa-type opioid receptor (Homo sapiens, UniProt P41145). Particulars: CHO.
Description: Ability to displace U-69,593 from human recombinant Opioid receptor kappa 1 in CHO cells using [35S]- GTP-gamma S Assay
Assay [4] has as its target T3, Mu-type opioid receptor (Homo sapiens, UniProt P35372). Particulars: CHO.
Description: Ability to displace DAMGO from human recombinant Opioid receptor mu 1 in CHO cells using [35S]- GTP-gamma S Assay
In assay [5] the target is T2, Kappa-type opioid receptor. It is filed as cell-based, CHO.
Description: Ability to displace [3H]U-69593 from human recombinant Opioid receptor kappa 1 in CHO cells
The target in assay [6] is T3, Mu-type opioid receptor. The experiment in a line: Ability to displace [3H]DAMGO from human recombinant Opioid receptor mu 1 in CHO cells. It counts as cell-based.

pKi: −log10 of the molar value.

T3 sequence (P35372 whole entry): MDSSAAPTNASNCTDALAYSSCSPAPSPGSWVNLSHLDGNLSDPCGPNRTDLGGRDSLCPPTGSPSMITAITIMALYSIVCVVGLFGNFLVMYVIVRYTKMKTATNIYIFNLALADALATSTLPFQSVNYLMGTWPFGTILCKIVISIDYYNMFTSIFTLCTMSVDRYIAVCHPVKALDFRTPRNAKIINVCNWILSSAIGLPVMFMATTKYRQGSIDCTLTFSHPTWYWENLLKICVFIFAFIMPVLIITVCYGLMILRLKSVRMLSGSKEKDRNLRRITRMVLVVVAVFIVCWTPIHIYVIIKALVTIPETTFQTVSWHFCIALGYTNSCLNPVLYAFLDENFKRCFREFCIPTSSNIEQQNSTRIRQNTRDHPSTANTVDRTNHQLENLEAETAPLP
T2 sequence (P41145 whole entry): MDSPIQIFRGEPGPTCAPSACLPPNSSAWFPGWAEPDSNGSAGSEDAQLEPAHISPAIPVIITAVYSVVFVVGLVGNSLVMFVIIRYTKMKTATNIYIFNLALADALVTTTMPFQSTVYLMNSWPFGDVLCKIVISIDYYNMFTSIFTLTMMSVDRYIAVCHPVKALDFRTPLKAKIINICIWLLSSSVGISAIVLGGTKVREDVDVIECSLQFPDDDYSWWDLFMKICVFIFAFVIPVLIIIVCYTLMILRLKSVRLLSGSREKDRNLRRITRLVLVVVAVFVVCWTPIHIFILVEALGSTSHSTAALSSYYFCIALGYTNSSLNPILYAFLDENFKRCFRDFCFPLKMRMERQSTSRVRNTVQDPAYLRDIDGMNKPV
T1 sequence (P41143 whole entry): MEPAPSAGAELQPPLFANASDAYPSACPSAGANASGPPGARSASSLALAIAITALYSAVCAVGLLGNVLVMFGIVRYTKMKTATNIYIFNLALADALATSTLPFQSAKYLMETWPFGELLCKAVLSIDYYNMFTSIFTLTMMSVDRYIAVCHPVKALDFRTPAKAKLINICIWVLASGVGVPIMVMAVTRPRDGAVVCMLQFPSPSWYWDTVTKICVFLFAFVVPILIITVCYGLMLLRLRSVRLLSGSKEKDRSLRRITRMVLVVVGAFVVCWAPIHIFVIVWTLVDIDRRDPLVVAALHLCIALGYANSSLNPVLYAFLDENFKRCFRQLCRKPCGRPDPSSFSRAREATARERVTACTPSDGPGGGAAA

On to `CCCCC(=N)NCCc1ccc2[nH]c3c(c2c1)C[C@@]1(O)C2Cc4ccc(O)c5c4[C@@]1(CCN2CC1CC1)[C@H]3O5`, for which the pKi (in general, the Ki on a negative log10 scale, so that one unit is a factor of ten) in assay [1] is 7.42; in assay [5], 9.52; at Mu-type opioid receptor [6], 6.66. Moreover, the Ke was 3.31 nM in assay [2], 0.17 nM in assay [3] and 5.33 nM on Mu-type opioid receptor [4].

In the case of `CCCCCCCNC(=N)Cc1ccc2[nH]c3c(c2c1)C[C@@]1(O)C2Cc4ccc(O)c5c4[C@@]1(CCN2CC1CC1)[C@H]3O5`, the pKi in assay [1] was 8.13; in assay [5], 8.25; on Mu-type opioid receptor [6], 7.25.

For the compound `CCCCCCCNC(=O)c1ccc2[nH]c3c(c2c1)C[C@@]1(O)C2Cc4ccc(O)c5c4[C@@]1(CCN2CC1CC1)[C@H]3O5`, the results for the pKi (in assay [1]; in assay [5]; at Mu-type opioid receptor [6]) were 7.15, 7.66 and 7.21, respectively. Further, the Ke was 6.95 nM in assay [2], 0.29 nM in assay [3] and 6.86 nM at Mu-type opioid receptor [4].

For `CCCC(=O)NCCc1ccc2[nH]c3c(c2c1)C[C@@]1(O)C2Cc4ccc(O)c5c4[C@@]1(CCN2CC1CC1)[C@H]3O5`, the pKi in assay [1] was 8.43; in assay [5] it was 9.07; at Mu-type opioid receptor [6], 7.51. Also, the Ke was 0.3 nM in assay [2], 0.35 nM in assay [3] and 3.17 nM at Mu-type opioid receptor [4].

As to `CCC(=N)NCCc1ccc2[nH]c3c(c2c1)C[C@@]1(O)C2Cc4ccc(O)c5c4[C@@]1(CCN2CC1CC1)[C@H]3O5`, the pKi in assay [1] was 7.66; in assay [5] it was 9.55; at Mu-type opioid receptor [6], 7.58. Besides, the Ke was 1.77 nM in assay [2], 0.24 nM in assay [3] and 4.7 nM at Mu-type opioid receptor [4].

On to `CCC/N=C(\N)Cc1ccc2[nH]c3c(c2c1)C[C@@]1(O)C2Cc4ccc(O)c5c4[C@@]1(CCN2CC1CC1)[C@H]3O5`, for which the Ke in assay [2] was found to be 4.41 nM; in assay [3], 0.05 nM; on Mu-type opioid receptor [4] it was 3.19 nM.

On to `CCCC(=N)NCCc1ccc2[nH]c3c(c2c1)C[C@@]1(O)C2Cc4ccc(O)c5c4[C@@]1(CCN2CC1CC1)[C@H]3O5`, for which the pKi in assay [1] was 7.56; in assay [5], 9.60; on Mu-type opioid receptor [6] it was 7.39. Moreover, the Ke in assay [2] came to 1.89 nM; in assay [3], 0.18 nM; on Mu-type opioid receptor [4] it was 4.21 nM.

Turning to `COc1ccc(CNC(=O)c2ccc3[nH]c4c(c3c2)C[C@@]2(O)C3Cc5ccc(O)c6c5[C@@]2(CCN3CC2CC2)[C@H]4O6)cc1`, the figures for the pKi (in assay [1]; in assay [5]; at Mu-type opioid receptor [6]) were 8.13, 8.68 and 8.33, respectively. In addition, the Ke in assay [2] was found to be 6.2 nM; in assay [3], 0.28 nM; at Mu-type opioid receptor [4], 0.94 nM.

Regarding `CCCCCCC/N=C(\N)Cc1ccc2[nH]c3c(c2c1)C[C@@]1(O)C2Cc4ccc(O)c5c4[C@@]1(CCN2CC1CC1)[C@H]3O5`, the Ke turned out to be 5.83 nM in assay [2], 0.37 nM in assay [3] and 2.04 nM at Mu-type opioid receptor [4].

As for `CCCCCCNC(=O)NCCc1ccc2[nH]c3c(c2c1)C[C@@]1(O)C2Cc4ccc(O)c5c4[C@@]1(CCN2CC1CC1)[C@H]3O5`, the values for the pKi (in assay [1]; in assay [5]; at Mu-type opioid receptor [6]) were 8.65, 8.09 and 7.87, respectively. For the same compound, the results for the Ke (in assay [2]; in assay [3]; at Mu-type opioid receptor [4]) were 1.04 nM, 1.71 nM and 1.79 nM, respectively.

For `O=C(NCCCCc1ccccc1)c1ccc2[nH]c3c(c2c1)C[C@@]1(O)C2Cc4ccc(O)c5c4[C@@]1(CCN2CC1CC1)[C@H]3O5`, the pKi in assay [1] was 7.23; in assay [5] it was 8.21; on Mu-type opioid receptor [6] it was 7.43. For the same compound, the Ke turned out to be 5.15 nM in assay [2], 0.26 nM in assay [3] and 2.78 nM on Mu-type opioid receptor [4].

Turning to `CCCCC/N=C(\N)Cc1ccc2[nH]c3c(c2c1)C[C@@]1(O)C2Cc4ccc(O)c5c4[C@@]1(CCN2CC1CC1)[C@H]3O5`, the values for the Ke (in assay [2]; in assay [3]; at Mu-type opioid receptor [4]) were 3.83 nM, 0.21 nM and 5.61 nM, respectively.

As for `O=C(NCCc1ccccc1)c1ccc2[nH]c3c(c2c1)C[C@@]1(O)C2Cc4ccc(O)c5c4[C@@]1(CCN2CC1CC1)[C@H]3O5`, the pKi in assay [1] is 8.45; in assay [5] it was 8.66; at Mu-type opioid receptor [6], 7.63. Further, the Ke in assay [2] turned out to be 1.21 nM; in assay [3], 0.17 nM; on Mu-type opioid receptor [4], 2.7 nM.

For `CCCCNC(=O)NCCc1ccc2[nH]c3c(c2c1)C[C@@]1(O)C2Cc4ccc(O)c5c4[C@@]1(CCN2CC1CC1)[C@H]3O5`, the pKi is 8.59 in assay [1], 8.20 in assay [5] and 8.32 at Mu-type opioid receptor [6]. The Ke in assay [2] worked out at 0.53 nM; in assay [3] it was 1.52 nM; on Mu-type opioid receptor [4], 1.63 nM.

`CCC(=O)NCCc1ccc2[nH]c3c(c2c1)C[C@@]1(O)C2Cc4ccc(O)c5c4[C@@]1(CCN2CC1CC1)[C@H]3O5`: the pKi in assay [1] was 8.51; in assay [5], 8.80; at Mu-type opioid receptor [6] it was 7.64. Besides, the Ke in assay [2] was determined as 0.38 nM; in assay [3] it was 0.48 nM; at Mu-type opioid receptor [4] it was 4.94 nM.

`CCNC(=O)NCCc1ccc2[nH]c3c(c2c1)C[C@@]1(O)C2Cc4ccc(O)c5c4[C@@]1(CCN2CC1CC1)[C@H]3O5`: the negative-log Ki (pKi) in assay [1] was 8.61; in assay [5] it was 7.91; on Mu-type opioid receptor [6], 7.42. The Ke amounted to 0.65 nM in assay [2], 2.47 nM in assay [3] and 1.6 nM at Mu-type opioid receptor [4].

For `CC(C)CC(=N)NCCc1ccc2[nH]c3c(c2c1)C[C@@]1(O)C2Cc4ccc(O)c5c4[C@@]1(CCN2CC1CC1)[C@H]3O5`, the pKi in assay [1] is 7.70; in assay [5] it was 8.86; at Mu-type opioid receptor [6], 7.32. For the same compound, the Ke in assay [2] came out at 5.23 nM; in assay [3] it was 0.32 nM; on Mu-type opioid receptor [4], 14.7 nM.

In the case of `CCCCCNC(=N)Cc1ccc2[nH]c3c(c2c1)C[C@@]1(O)C2Cc4ccc(O)c5c4[C@@]1(CCN2CC1CC1)[C@H]3O5`, the values for the pKi (in assay [1]; in assay [5]; at Mu-type opioid receptor [6]) were 7.77, 8.84 and 7.60, respectively.

Regarding `O=C(NCc1ccccc1)c1ccc2[nH]c3c(c2c1)C[C@@]1(O)C2Cc4ccc(O)c5c4[C@@]1(CCN2CC1CC1)[C@H]3O5`, the pKi is 7.95 in assay [1], 7.99 in assay [5] and 7.36 at Mu-type opioid receptor [6]. For the same compound, the results for the Ke (in assay [2]; in assay [3]; at Mu-type opioid receptor [4]) were 2.99 nM, 0.73 nM and 4.4 nM, respectively.

On to `CCCCC(=O)NCCc1ccc2[nH]c3c(c2c1)C[C@@]1(O)C2Cc4ccc(O)c5c4[C@@]1(CCN2CC1CC1)[C@H]3O5`, for which the pKi was 8.12 in assay [1], 9.17 in assay [5] and 7.50 on Mu-type opioid receptor [6]. In addition, the values for the Ke (in assay [2]; in assay [3]; on Mu-type opioid receptor [4]) were 0.23 nM, 0.46 nM and 3.37 nM, respectively.

For the compound `CC(=N)NCCc1ccc2[nH]c3c(c2c1)C[C@@]1(O)C2Cc4ccc(O)c5c4[C@@]1(CCN2CC1CC1)[C@H]3O5`, the values for the pKi (in assay [1]; in assay [5]; at Mu-type opioid receptor [6]) were 7.67, 9.54 and 7.65, respectively. Also, the Ke worked out at 1.79 nM in assay [2], 0.21 nM in assay [3] and 3.78 nM at Mu-type opioid receptor [4].

With `CCCNC(=N)Cc1ccc2[nH]c3c(c2c1)C[C@@]1(O)C2Cc4ccc(O)c5c4[C@@]1(CCN2CC1CC1)[C@H]3O5`, the pKi is 8.28 in assay [1], 8.80 in assay [5] and 7.87 on Mu-type opioid receptor [6].
